Source: patent publication US10551393B1, “High-throughput, in vivo screening platform for modulators of Apolipoprotein B” (THE JOHNS HOPKINS UNIVERSITY, priority 2016, dated 2020)
Entries after “also recorded” stand apart in the source; their conditions may differ.

Columns and labels:
[1] = tested on: ApoB-containing lipoprotein particles; test: In-gel luciferase assay for lipoprotein size distribution; format: in vivo, zebrafish; settings: for lipoprotein particle size distribution: larval zebrafish homogenate, polyacrylamide gel, in-gel luciferase
Protocol: To evaluate whether introduction of the luciferase tag disrupted protein function, individual larvae carrying the reporter construct were homogenized and lipoprotein classes were separated on a 3% PAGE gel (see Singh et al. Lipids in Health and Disease 7:47, 2008). An in-gel luciferase assay was then performed to detect the NanoLuc® luciferase reporter present in the gel (FIG. 2A), and compared to the results obtained from adult zebrafish serum that was stained using lipophilic fluorescent dye (FIG. 2B). Encouragingly, essentially all of the signal was present in the expected VLDL, IDL, and LDL portions of the gel, which is consistent with the primary role of ApoB as an obligate structural component of lipid-rich lipoproteins. Additionally, this method has sufficient sensitivity and resolution to detect LDL subclasses, which are seen as deviations from the normal distribution in the plot profile. […] Additionally, signal from the ApoB-luciferase fusion is responsive to known chemical and physiological modulators of ApoB (MTP inhibition and fasting).
The in-gel luciferase assay developed in our lab provides the opportunity to rapidly and sensitively detect changes in lipoprotein size distribution using individual larval zebrafish. Following a week of high-fat diet with or without treatment of test compound, larval zebrafish are homogenized and lipoproteins are separated on a 3% native PAGE gel and imaged using the in-gel luciferase reporter. This enables rapid assessment of lead compounds on effects of the potentially clinically important lipoprotein size distribution phenotype. […]
In addition to its utility as a high-throughput compatible readout for measuring levels of Apolipoprotein B, the described ApoB-NanoLuc® luciferase reporter can also be used to measure the size distribution and localization of ApoB-containing particles in zebrafish larvae. Lipoproteins separated using polyacrylamide gel electrophoresis can be sensitively detected in individual larval homogenates by immersing the gel in the NanoLuc® luciferase substrate. […]

[2] = tested on: ApoB-NanoLuc® luciferase reporter; test: ApoB-NanoLuc luciferase reporter assay in transgenic zebrafish larvae (primary screen); format: in vivo
Protocol: Of the two existing inhibitors of ApoB, lomitapide is the most appropriate for use as a proof of principle because it is a small molecule. Conversely, mipomersen is an injectable antisense biologic that is not suitable for comparison to small-molecule inhibitors and cannot be used a high-throughput manner. Larval zebrafish were treated with serial dilutions of the lomitapide for 36 hours from 2.5 to 4 dpf.
There are detailed protocols for the development and execution of a high-throughput screen using live vertebrate zebrafish (26, 27). The high-throughput screen uses transgenic zebrafish that carry both an engineered luciferase reporter (NanoLuc® luciferase) fused to ApoB which serves as the primary readout, and a second ubiquitously expressed firefly luciferase reporter that is used as an internal control. Transgenic larvae are raised to 3 days post-fertilization (dpf) and automatically sorted and dispensed into 96-well plates containing various dilutions of test compound. Following 48-hour incubation with test and control compounds, the zebrafish are homogenized and assayed sequentially for Firefly and NanoLuc® luciferase signal using the automated robotics platform and plate reader. Hit-calling software is used to select putative hits, which are validated through repetition and orthogonal screening. The first iteration of the screen uses a modest-sized library (3,000 compounds), and empirical determination of the optimal sample size and number of titration points required for screening enables an increase in throughput for the following iteration of the screen, which screens a 30,000 compound library.
Statistical resampling of positive control treatments can be used to estimate the appropriate sample size for HTS assays given type I and type II error rate thresholds and a desired cutoff for effect size (27). Assuming a type II error rate of 0.01 and setting the hit selection cutoff to 50% the magnitude of positive control treatment generates a log-linear relationship between sample size and type I error rate. […] Besides serving as a metric for assay quality, the SSMD score can also be used to determine hit cutoff criteria. This statistical test compares the averages between the negative control and each experimental sample, and then adjusts this difference based on the median absolute deviation (MAD) of each sample, such that samples with high variability are penalized and produce a poor SSMD score even if there is a large difference between the means. In positive control treatments, lomitapide produced an SSMD score of −4.5, reflecting a very strong control assay. The scaling factor formula can be used to determine the SSMD cutoff based on the desired magnitude relative to the positive control. A compound with a 50% effect size relative to MTP was chosen as a physiologically relevant effect size, which would produce an SSMD score of −2.7.
Day 1: Embryo production and collection—zebrafish homozygous for the ApoB-NanoLuc® luciferase and ubi:Fluc reporters are induced to spawn using custom mass-breeding chambers. Eggs are collected hourly from 9 AM to 2 PM. Embryos are maintained in petri dishes at a density of 5 fish/mL of embryo medium (E3). Day 2: Raising embryos—Embryos are maintained in E3 (1 dpf). Day 3: Raising embryos and preparing drug plates—Embryos are maintained in embryo medium (2 dpf). […]

ApoB = settings: cited from earlier work
[3] = tested on: firefly luciferase internal control reporter; test: Firefly luciferase internal control (counter-screen) of the dual luciferase assay; format: in vivo; settings: preliminary screen; cutoff SSMD ±2.4
Text: The primary screen seeks to identify compounds that lower ApoB levels, which is likely to identify numerous false positives that are cytotoxic or inhibit fundamental cellular processes such as transcription or translation. The inclusion of a counter-screen helps identify compounds that have strong effects on the target phenotype without causing major disruptions in other cellular processes. The pd75 zebrafish line carries a ubiquitous promoter driving firefly luciferase as well as the mCherry fluorescent reporter, which can be used to detect developmental delay or cytotoxicity in any organ. […]
The Nano-Glo® dual luciferase assay provides the means to independently measure firefly and NanoLuc® luciferase in a single reaction enabling parallel measurement of the primary screen reaction and counter-screen reaction in a high-throughput compatible add-and-read format. Consistent measurement of luciferase activity requires homogenous sample inputs, so we have developed homogenization methods using a microplate sonicator that exceeds the throughput capacity of the plate reader.
The NanoLuc® luciferase reporter uses a different substrate than firefly luciferase, allowing a second luciferase reporter to be measured in parallel as an internal control. […]

SMILES: O=C(NC1CCN(CCCCC2(C(=O)NCC(F)(F)F)c3ccccc3-c3ccccc32)CC1)c1ccccc1-c1ccc(C(F)(F)F)cc1 [lomitapide]
- ApoB levels ([1]; acute treatment, larval zebrafish, 3% native PAGE): significant reduction
- lipoprotein particle size distribution [1]: unable to create large lipoprotein particles; also recorded: particle size and number are greatly reduced; also recorded: did not have large lipoprotein particles
- lipoprotein particle size distribution ([1]; listed as Lomitapide): induced the formation of very small lipoprotein particles
- reporter activity relative to vehicle-treated controls ([2]; larval zebrafish, serial dilutions, 36 hours from 2.5 to 4 dpf): dose-dependent reduction
- SSMD score (ApoB-NanoLuc) ([2]; positive control treatments, hit cutoff −2.7): −4.5
- NanoLuc luciferase levels ([2]; preliminary screen, dose-response, hit selection cutoff −2.7): dose-dependent decrease
- change in ApoB (ApoB-NanoLuc) ([2]; preliminary validation screen of lipid/lipoprotein metabolism compounds): significant change in ApoB
- ApoB-NanoLuc luciferase levels in transgenic larvae ([2]; transgenic larvae): significantly lowered
- ApoB levels in humans (ApoB): significant reduction
- effect on internal control reporter (firefly luciferase) [3]: without affecting the internal control reporter
